In PubChem BioAssay AID2060899 (Molecular Pharmacology Branch, DTP, NCI, 2025):

Test system: 565726-208-R1-J5-PDC complex spheroids, growth inhibition
Assay: Anticancer human tumor 565726-208-R1-J5-PDC patient-derived pancreatic adenocarcinoma cell line growth inhibition [RAS]
Settings: for IC50: curve of first compound; for viability, T/C: stronger effect = lower value
Outline: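 Tumour cells grown as complex spheroids with HUVEC endothelial cells and mesenchymal stem cells, treated with RAS pathway inhibitor combinations. Each agent spans half-log steps from near clinical Cmax, or 10 microM where Cmax is unknown.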
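Note: spheroids exposed to compounds for seven days before readout.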
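Throughout, for viability, T/C: 100% = DMSO vehicle control viability.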

For `CCN1CCN(Cc2ccc(Nc3ncc(F)c(-c4cc(F)c5nc(C)n(C(C)C)c5c4)n3)nc2)CC1` + CCn1c(-c2cccnc2C(C)OC)c2c3cc(ccc31)N1CCOC(CC(NC(=O)C(C(C)C)N(C)C(=O)C3(F)CCN(C(=O)C#CC(C)(C)N(C)C)CC3)C(=O)N3CCCC(N3)C(=O)OCC(C)(C)C2)C1, the IC50 (second compound 0.000949 µM) was > 1000 nM, the IC50 (second compound 0.003 µM) was > 1000 nM and the IC50 (second compound 0.00949 µM) was > 1000 nM. For the same compound, the IC50 (second compound 0.03 µM) was > 1000 nM, the IC50 (second compound 0.0949 µM) was > 1000 nM and the IC50 (second compound 0.3 µM) was > 1000 nM. For the same compound, the viability, T/C (second compound 0.000949 µM, first compound 0.00316 µM) was 93.5%, the viability, T/C (second compound 0.000949 µM, first compound 0.01 µM) was 91.2% and the viability, T/C (second compound 0.000949 µM, first compound 0.0316 µM) was 80.6%. For the same compound, the viability, T/C (second compound 0.000949 µM, first compound 0.1 µM) was 74%, the viability, T/C (second compound 0.000949 µM, first compound 0.316 µM) was 59.3% and the viability, T/C (second compound 0.000949 µM, first compound 1 µM) was 56.2%. It also gave a viability, T/C (second compound 0.003 µM, first compound 0.00316 µM) of 105%, a viability, T/C (second compound 0.003 µM, first compound 0.01 µM) of 96% and a viability, T/C (second compound 0.003 µM, first compound 0.0316 µM) of 84.3%. It also gave a viability, T/C (second compound 0.003 µM, first compound 0.1 µM) of 74.7%, a viability, T/C (second compound 0.003 µM, first compound 0.316 µM) of 60.4% and a viability, T/C (second compound 0.003 µM, first compound 1 µM) of 61%. The viability, T/C (second compound 0.00949 µM, first compound 0.00316 µM) was 97.7%, the viability, T/C (second compound 0.00949 µM, first compound 0.01 µM) was 89.8% and the viability, T/C (second compound 0.00949 µM, first compound 0.0316 µM) was 84.4%. For the same compound, the viability, T/C (second compound 0.00949 µM, first compound 0.1 µM) was 69.4%, the viability, T/C (second compound 0.00949 µM, first compound 0.316 µM) was 64.3% and the viability, T/C (second compound 0.00949 µM, first compound 1 µM) was 56%. The viability, T/C (second compound 0.03 µM, first compound 0.00316 µM) was 91.5%, the viability, T/C (second compound 0.03 µM, first compound 0.01 µM) was 94.3% and the viability, T/C (second compound 0.03 µM, first compound 0.0316 µM) was 85.1%. It also gave a viability, T/C (second compound 0.03 µM, first compound 0.1 µM) of 72.7%, a viability, T/C (second compound 0.03 µM, first compound 0.316 µM) of 62% and a viability, T/C (second compound 0.03 µM, first compound 1 µM) of 57.4%. The viability, T/C (second compound 0.0949 µM, first compound 0.00316 µM) was 95%, the viability, T/C (second compound 0.0949 µM, first compound 0.01 µM) was 94.7% and the viability, T/C (second compound 0.0949 µM, first compound 0.0316 µM) was 85.7%. For the same compound, the viability, T/C (second compound 0.0949 µM, first compound 0.1 µM) was 67.9%, the viability, T/C (second compound 0.0949 µM, first compound 0.316 µM) was 54.1% and the viability, T/C (second compound 0.0949 µM, first compound 1 µM) was 59.5%. The viability, T/C (second compound 0.3 µM, first compound 0.00316 µM) was 85%, the viability, T/C (second compound 0.3 µM, first compound 0.01 µM) was 82.1% and the viability, T/C (second compound 0.3 µM, first compound 0.0316 µM) was 76.5%. The viability, T/C (second compound 0.3 µM, first compound 0.1 µM) was 64.1%, the viability, T/C (second compound 0.3 µM, first compound 0.316 µM) was 56.2% and the viability, T/C (second compound 0.3 µM, first compound 1 µM) was 55.3%.

In the case of `CC(C)n1nc(-c2ccc3oc(N)nc3c2)c2c(N)ncnc21` + C=CC(=O)N1CCN(c2nc(OCC3CCCN3C)nc3c(F)c(-c4nc(N)cc(C)c4C(F)(F)F)c(Cl)cc23)C(C)C1, the IC50 (second compound 0.00316 µM) is reported as 100 nM, the IC50 (second compound 0.01 µM) is reported as 25.2 nM and the IC50 (second compound 0.0316 µM) is reported as 44.9 nM. It also gave an IC50 (second compound 0.1 µM) of 59.1 nM, an IC50 (second compound 0.316 µM) of 100 nM and an IC50 (second compound 1 µM) of 80.9 nM. It also gave a viability, T/C (second compound 0.00316 µM, first compound 0.000316 µM) of 93%, a viability, T/C (second compound 0.00316 µM, first compound 0.001 µM) of 138% and a viability, T/C (second compound 0.00316 µM, first compound 0.00316 µM) of 70.2%. For the same compound, the viability, T/C (second compound 0.00316 µM, first compound 0.01 µM) was 62.3%, the viability, T/C (second compound 0.00316 µM, first compound 0.0316 µM) was 57.1% and the viability, T/C (second compound 0.00316 µM, first compound 0.1 µM) was 42%. The viability, T/C (second compound 0.01 µM, first compound 0.000316 µM) was 93.5%, the viability, T/C (second compound 0.01 µM, first compound 0.001 µM) was 132% and the viability, T/C (second compound 0.01 µM, first compound 0.00316 µM) was 96.7%. It also gave a viability, T/C (second compound 0.01 µM, first compound 0.01 µM) of 68.2%, a viability, T/C (second compound 0.01 µM, first compound 0.0316 µM) of 48.2% and a viability, T/C (second compound 0.01 µM, first compound 0.1 µM) of 39.5%. The viability, T/C (second compound 0.0316 µM, first compound 0.000316 µM) was 99.8%, the viability, T/C (second compound 0.0316 µM, first compound 0.001 µM) was 148% and the viability, T/C (second compound 0.0316 µM, first compound 0.00316 µM) was 81.7%. The viability, T/C (second compound 0.0316 µM, first compound 0.01 µM) was 78.3%, the viability, T/C (second compound 0.0316 µM, first compound 0.0316 µM) was 55.5% and the viability, T/C (second compound 0.0316 µM, first compound 0.1 µM) was 41.1%. It also gave a viability, T/C (second compound 0.1 µM, first compound 0.000316 µM) of 107%, a viability, T/C (second compound 0.1 µM, first compound 0.001 µM) of 121% and a viability, T/C (second compound 0.1 µM, first compound 0.00316 µM) of 86.5%. For the same compound, the viability, T/C (second compound 0.1 µM, first compound 0.01 µM) was 70.8%, the viability, T/C (second compound 0.1 µM, first compound 0.0316 µM) was 65.7% and the viability, T/C (second compound 0.1 µM, first compound 0.1 µM) was 40.3%. The viability, T/C (second compound 0.316 µM, first compound 0.000316 µM) was 87.1%, the viability, T/C (second compound 0.316 µM, first compound 0.001 µM) was 126% and the viability, T/C (second compound 0.316 µM, first compound 0.00316 µM) was 70.7%. It also gave a viability, T/C (second compound 0.316 µM, first compound 0.01 µM) of 68.7%, a viability, T/C (second compound 0.316 µM, first compound 0.0316 µM) of 49.7% and a viability, T/C (second compound 0.316 µM, first compound 0.1 µM) of 46%. The viability, T/C (second compound 1 µM, first compound 0.000316 µM) was 79.9%, the viability, T/C (second compound 1 µM, first compound 0.001 µM) was 96.3% and the viability, T/C (second compound 1 µM, first compound 0.00316 µM) was 97.7%. For the same compound, the viability, T/C (second compound 1 µM, first compound 0.01 µM) was 65.6%, the viability, T/C (second compound 1 µM, first compound 0.0316 µM) was 65% and the viability, T/C (second compound 1 µM, first compound 0.1 µM) was 45.2%.

Work on `CCc1c2c(nc3ccc(O)cc13)-c1cc3c(c(=O)n1C2)COC(=O)[C@]3(O)CC` + C=CC(=O)N1CCN(c2nc(OCC3CCCN3C)nc3c(F)c(-c4nc(N)cc(C)c4C(F)(F)F)c(Cl)cc23)C(C)C1 yielded an IC50 (second compound 0.00316 µM) of 4.93 nM, an IC50 (second compound 0.01 µM) of 4.61 nM and an IC50 (second compound 0.0316 µM) of 5.78 nM. It also gave an IC50 (second compound 0.1 µM) of 5.53 nM, an IC50 (second compound 0.316 µM) of 3.96 nM and an IC50 (second compound 1 µM) of 5.1 nM. It also gave a viability, T/C (second compound 0.00316 µM, first compound 0.000949 µM) of 88.2%, a viability, T/C (second compound 0.00316 µM, first compound 0.003 µM) of 61.3% and a viability, T/C (second compound 0.00316 µM, first compound 0.00949 µM) of 34.5%. It also gave a viability, T/C (second compound 0.00316 µM, first compound 0.03 µM) of 23.3%, a viability, T/C (second compound 0.00316 µM, first compound 0.0949 µM) of 15.2% and a viability, T/C (second compound 0.00316 µM, first compound 0.3 µM) of 7.24%. It also gave a viability, T/C (second compound 0.01 µM, first compound 0.000949 µM) of 98.5%, a viability, T/C (second compound 0.01 µM, first compound 0.003 µM) of 58.2% and a viability, T/C (second compound 0.01 µM, first compound 0.00949 µM) of 33.8%. It also gave a viability, T/C (second compound 0.01 µM, first compound 0.03 µM) of 24.9%, a viability, T/C (second compound 0.01 µM, first compound 0.0949 µM) of 14.3% and a viability, T/C (second compound 0.01 µM, first compound 0.3 µM) of 8.62%. The viability, T/C (second compound 0.0316 µM, first compound 0.000949 µM) was 121%, the viability, T/C (second compound 0.0316 µM, first compound 0.003 µM) was 68.4% and the viability, T/C (second compound 0.0316 µM, first compound 0.00949 µM) was 35.4%. It also gave a viability, T/C (second compound 0.0316 µM, first compound 0.03 µM) of 21.1%, a viability, T/C (second compound 0.0316 µM, first compound 0.0949 µM) of 13.2% and a viability, T/C (second compound 0.0316 µM, first compound 0.3 µM) of 8.94%. The viability, T/C (second compound 0.1 µM, first compound 0.000949 µM) was 134%, the viability, T/C (second compound 0.1 µM, first compound 0.003 µM) was 64.1% and the viability, T/C (second compound 0.1 µM, first compound 0.00949 µM) was 39.3%. For the same compound, the viability, T/C (second compound 0.1 µM, first compound 0.03 µM) was 18.2%, the viability, T/C (second compound 0.1 µM, first compound 0.0949 µM) was 15.1% and the viability, T/C (second compound 0.1 µM, first compound 0.3 µM) was 8.7%. The viability, T/C (second compound 0.316 µM, first compound 0.000949 µM) was 113%, the viability, T/C (second compound 0.316 µM, first compound 0.003 µM) was 53% and the viability, T/C (second compound 0.316 µM, first compound 0.00949 µM) was 33.1%. The viability, T/C (second compound 0.316 µM, first compound 0.03 µM) was 21.1%, the viability, T/C (second compound 0.316 µM, first compound 0.0949 µM) was 13.3% and the viability, T/C (second compound 0.316 µM, first compound 0.3 µM) was 8.96%. For the same compound, the viability, T/C (second compound 1 µM, first compound 0.000949 µM) was 130%, the viability, T/C (second compound 1 µM, first compound 0.003 µM) was 59.1% and the viability, T/C (second compound 1 µM, first compound 0.00949 µM) was 35%. For the same compound, the viability, T/C (second compound 1 µM, first compound 0.03 µM) was 32.9%, the viability, T/C (second compound 1 µM, first compound 0.0949 µM) was 18.6% and the viability, T/C (second compound 1 µM, first compound 0.3 µM) was 11.7%.
